According to patent US20060166271A1, “Non-radioactive schilling test” (priority 2003, published 2006):
“And” between values parts separate entries of the source, which are not always exact repeats. Equal entries are not always repeated.

Experiments:
[1] = Vitamin B12 absorption from serum holo-TC and TC saturation before and after oral vitamin B12, patients with suspected malabsorption; type: in vivo, human; conditions: individual patients with Crohn's disease, day 1-day 0, oral 3 times 9 μg
From the text: The subjects participating in the study were 31 healthy subjects recruited in October 2002. None of them suffered from known disorders related to vitamin B12 deficiency. Persons with chronic systemic disease, persons taking any kind of medical treatment, including vitamin tablets within the past week and persons not being able to give written informed consent were excluded. The age of the healthy subjects ranged from to 25 to 57 (mean 40) years. There were 9 men and 22 women. We further included seven patients (age 22-39 years, five men and two women) who had been referred to the out-patient clinic of internal medicine department during 2003 because vitamin B12 malabsorption was suspected. Three of the seven patients have previously been diagnosed as Crohn's disease. […]
The absorption of vitamin B12 was evaluated from analysis of serum vitamin B12, total TC, and holo-TC on samples obtained before and after oral administration of vitamin B12. […]
Serum vitamin B12 was determined by a commercial method (Bayer corporation, NY) on a Centaur equipment (analytical imprecision<10%). Serum total TC and holo-TC were measured by ELISA as recently described (Nexø et al., 2000; 2002), but modified to allow the use of an automated ELISA analyser (BEP-2000, Dade Behring, Germany). […] Haematological parameters were analysed on the Coulter Counter (Beckman Coulter CA). […]

[2] = oral dose; cited from earlier work
[3] = Vitamin B12 absorption from serum vitamin B12, total TC and holo-TC before and after oral vitamin B12, healthy subjects; type: in vivo, human; conditions: for Holo-TC, median: serum
From the text: The subjects participating in the study were 31 healthy subjects recruited in October 2002. None of them suffered from known disorders related to vitamin B12 deficiency. Persons with chronic systemic disease, persons taking any kind of medical treatment, including vitamin tablets within the past week and persons not being able to give written informed consent were excluded. The age of the healthy subjects ranged from to 25 to 57 (mean 40) years. There were 9 men and 22 women. We further included seven patients (age 22-39 years, five men and two women) who had been referred to the out-patient clinic of internal medicine department during 2003 because vitamin B12 malabsorption was suspected. Three of the seven patients have previously been diagnosed as Crohn's disease. The diagnosis of the remaining four patients was not clear. Written informed consent was obtained from all subjects, and the Research Ethics Committee of Aarhus County approved the study protocol (2002.0224).
The absorption of vitamin B12 was evaluated from analysis of serum vitamin B12, total TC, and holo-TC on samples obtained before and after oral administration of vitamin B12.
(§1) In healthy subjects samples were taken at 8:00 a.m. on the day before vitamin B12 intake (−1) and on day 0, 1, 2, and 6. After the blood sample was removed on day 0, an oral dose of 9 μg vitamin B12 (Natur Drogeriet A/S, Hoerning, Denmark) was given three times, with 6 h between the doses (8 a.m., 2 p.m., and 8 p.m. (time points were allowed to deviate ±45 min). One healthy subject was unavailable for delivering a blood sample on day 6. The absorption of vitamin B12 in seven patients was evaluated by the Schilling test I and by the design mentioned above except that the blood samples were obtained only on day 0 and day 1. The Schilling test I was performed after our alternative approach.
The vitamin B12 tablets were given with either water or orange juice. The subjects were allowed to have a light breakfast 30 to 60 min before blood sampling, not including any diary products, but were otherwise allowed to eat their normal diet. The blood samples were centrifuged within 60 minutes and were stored at −80° C. until further processed.
Serum vitamin B12 was determined by a commercial method (Bayer corporation, NY) on a Centaur equipment (analytical imprecision<10%). Serum total TC and holo-TC were measured by ELISA as recently described (Nexø et al., 2000; 2002), but modified to allow the use of an automated ELISA analyser (BEP-2000, Dade Behring, Germany). The following modification was performed; all incubations were performed at 37° C. The analytical imprecision was 7% for total TC (mean=934 pmol/L, n=91) and 8% for holo-TC (mean=38 pmol/L, n=41). The controls were run over 12 months for total TC and 6 months for holo-TC. The reference interval was established from analysing 161 samples obtained from healthy blood donors (age interval; 21-65). The reference interval was 700-1400 pmol/L for total TC, ≧50 pmol/L for holo-TC and ≧0.05 for TC saturation. Haematological parameters were analysed on the Coulter Counter (Beckman Coulter CA). Plasma creatinine was measured using the Jaffe method and a Roche Cobas integra 700 autoanalyzer (analytical imprecision <3%).
Alterations (increase or decrease) in parameters as a function of time were analysed by comparing the changes obtained on the same individuals relative to baseline (day 0) with the theoretical median “0” assigned for day 0. […] P-values <5% were regarded as statistically significant. Data were analysed using SPSS10.0 (SPSS Inc.) and the GraphPad (Prism2) software.

[4] = Schilling test I (urinary excretion of radioactive vitamin B12 over 24 hours); type: in vivo, human; conditions: individual patients with Crohn's disease; 1 μg oral Co-57 tagged vitamin B12, 24 hour urine; normal 10-40%
Experimental: as §1
The Schilling test I was performed as described previously (Chanarin, 1979). Briefly, a fasting patient is given a 1 μg oral dose of vitamin B12, which is tagged with radioactive cobalt (Co-57). Two hours after the oral dose the patient is then injected intramuscularly with 1000 μg of non-labeled vitamin B12. A 24 hour urine collection is initiated. The percentage of the administered dose excreted in the urine over 24 hours is then determined. Urinary excretion of 10-40% of the administered dose is considered normal.

[5] = DAY 1 after oral 3 times 9 μg vitamin B12, 31 healthy subjects
[6] = DAY 2 after oral 3 times 9 μg vitamin B12, 31 healthy subjects
[7] = DAY 6 after oral 3 times 9 μg vitamin B12, 31 healthy subjects
[8] = control subjects after omitting outliers (n=2)
[9] = one day after oral dose of three times 9 μg, healthy subjects (discussion)
[10] = relative to baseline (day 0), oral 3 times 9 μg, healthy subjects
[11] = relative to baseline (day 0), oral 3 times 9 μg, n=31 healthy subjects

- Increase in TC saturation after vitamin B12 intake [1]: 0.004 and 0.01 (2×)
- Increase in holo-TC after vitamin B12 intake [1]: 3 pmol/L and 7 pmol/L and 14 pmol/L
- Serum vitamin B12, median [3, 5]: 279 pmol/L
- TC saturation (holo-TC/total-TC), median [3, 5]: 0.13 fraction
- Holo-TC, median [3, 5]: 118 pmol/L
- Serum vitamin B12, median [3, 6]: 253 pmol/L
- TC saturation (holo-TC/total-TC), median [3, 6]: 0.11 fraction
- Holo-TC, median [3, 6]: 87 pmol/L
- Serum vitamin B12, median [3, 7]: 260 pmol/L
- TC saturation (holo-TC/total-TC), median [3, 7]: 0.09 fraction
- Holo-TC, median [3, 7]: 80 pmol/L
- Minimum increase for TC saturation (day 1-day 0) [3, 8]: 0.02
- Minimum increase for holo-TC (day 1-day 0) [3, 8]: 15 pmol/L
- Increase of TC saturation, median value [3, 9]: around 50%
- Increase of holo TC, median value [3, 9]: around 50%
- Absolute increase in serum vitamin B12, median (range) [3, 10]: 36 (−27-290) pmol/L
- Percentage increase in serum vitamin B12, median (range) [3, 10]: 14 (−8-+51) % and 14%
- Maximal absolute increase in TC saturation, median (range) [3, 11]: 0.04 (0-0.23) fraction
- Maximal absolute increase in holo-TC, median (range) [3, 11]: 34 (0-149) pmol/L
- Maximal percentage increase in TC saturation, median (range) [3, 11]: 52 (−2-+128) %
- Maximal percentage increase in holo-TC, median (range) [3, 11]: 39 (0-+108) %
- Schilling test I, percentage of vitamin B12 excreted in the urine [4]: 2% and 10% and 15%
Substance: cobalamin [vitamin B12]
- Refractory phase with less absorption after ingestion of a dose [2]: about 3 hours
